Earlier results on one molecule are cited in patent US20220273645A1, “NALTREXONE FORMULATION” (INTAS PHARMACEUTICALS LTD., priority 2019, published 2022).

In data set [1] the test system is children with moderate to severe Crohn's disease. To be noted: sole therapy in children with moderate-to-severe Crohn's disease.
The subject of another data set is Crohn's disease. To be noted: low dose; versus other standard therapy.

On to `O=C1CC[C@@]2(O)[C@H]3Cc4ccc(O)c5c4[C@@]2(CCN3CC2CC2)[C@H]1O5` [low dose naltrexone, (4R,4aS,7aR,12bS)-3-(cyclopropylmethyl)-4a,9-dihydroxy-2,4,5,6,7a,13-hexahydro-1H-4,12-methano benzofuro[3,2-e]isoquinoline-7-one], for which, in data set [1], the “tolerability / serious adverse events” value is recorded as “well tolerated without any serious adverse events”. Besides, the “safety and effectiveness for the treatment of Crohn's disease” value with Crohn's disease is listed as “safe, effective”.
